From the supplement of paper PMC10307832

How the values were obtained:
Assay in all cases: relative viability (nuclei count vs DMSO), 5 days (fraction); higher = more cells survive
[1] = compound: C1COCCN1CC2=CC(=O)C(=CO2)OCCCCCSC3=C4C=CC(=CC4=NC=C3)C(F)(F)F [EHT 1864] + C[C@@H](Oc1cc(-c2cnn(C3CCNCC3)c2)cnc1N)c1c(Cl)ccc(F)c1Cl [Crizotinib] (partner 1 µM)
Method in brief: (§1)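 Values are medians from duplicate plates. Each reflects relative viability, defined as the nuclei count of treated wells over that of vehicle wells. Lung cancer cell lines in 1536-well plates were pin-tool dosed one day after seeding with one drug alone or with a fixed anchor-drug dose plus five library-drug doses (not always all listed) in √10 steps, then fixed, stained and imaged at 4× after 5 days.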

[2] = compound: C1COCCN1CC2=CC(=O)C(=CO2)OCCCCCSC3=C4C=CC(=CC4=NC=C3)C(F)(F)F [EHT 1864] + CS(=O)(=O)N1CCN(Cc2cc3nc(-c4cccc5[nH]ncc45)nc(N4CCOCC4)c3s2)CC1 [Pictilisib] (partner 1 µM)
Method in brief: as §1

[3] = compound: C1COCCN1CC2=CC(=O)C(=CO2)OCCCCCSC3=C4C=CC(=CC4=NC=C3)C(F)(F)F [EHT 1864] + Cc1nc(Nc2ncc(C(=O)Nc3c(C)cccc3Cl)s2)cc(N2CCN(CCO)CC2)n1 [Dasatinib] (partner 0.075 µM)
Method in brief: as §1

[4] = compound: C1COCCN1CC2=CC(=O)C(=CO2)OCCCCCSC3=C4C=CC(=CC4=NC=C3)C(F)(F)F [EHT 1864] + O=C(CCCCCCC(=O)Nc1ccccc1)NO [Vorinostat] (partner 1 µM)
Method in brief: as §1

| Cell Line | relative viability ([1]; first compound 0.04 µM) | relative viability ([1]; first compound 0.4 µM) | relative viability ([1]; first compound 1.265 µM) | relative viability ([1]; first compound 4 µM) | relative viability ([2]; first compound 0.04 µM) | relative viability ([2]; first compound 0.4 µM) | relative viability ([2]; first compound 1.265 µM) | relative viability ([2]; first compound 4 µM) | relative viability ([3]; first compound 0.04 µM) | relative viability ([3]; first compound 0.1265 µM) | relative viability ([3]; first compound 0.4 µM) | relative viability ([3]; first compound 1.265 µM) | relative viability ([3]; first compound 4 µM) | relative viability ([4]; first compound 0.04 µM) | relative viability ([4]; first compound 0.1265 µM) | relative viability ([4]; first compound 0.4 µM) | relative viability ([4]; first compound 1.265 µM) | relative viability ([4]; first compound 4 µM) | relative viability ([1]; first compound 0.1265 µM) | relative viability ([2]; first compound 0.1265 µM) |
| --- | --- | --- | --- | --- | --- | --- | --- | --- | --- | --- | --- | --- | --- | --- | --- | --- | --- | --- | --- | --- |
| NCI-H23 | 0.488 | 0.513 | 0.496 | 0.5 | 0.476 | 0.432 | 0.593 | 0.55 | 0.741 | 0.536 | 0.522 | 0.481 | 0.779 | 0.627 | 0.343 | 0.582 | 0.578 | 0.532 | – | – |
| NCI-H322M | 0.927 | 0.849 | 0.995 | 1.05 | 0.519 | 0.533 | 0.529 | 0.572 | 0.256 | 0.24 | 0.283 | 0.23 | 0.234 | 0.856 | 0.921 | 0.863 | 0.807 | 0.789 | 0.837 | 0.514 |
| NCI-H358 | 0.604 | 0.616 | 0.517 | 0.579 | 0.349 | 0.342 | 0.315 | 0.3 | 0.215 | 0.145 | 0.17 | 0.174 | 0.186 | 0.645 | 0.652 | 0.612 | 0.68 | 0.559 | – | – |
| NCI-H441 | 0.783 | 0.752 | 0.879 | 0.723 | 0.388 | 0.515 | 0.6 | 0.508 | 0.562 | 0.532 | 0.557 | 0.649 | 0.603 | 0.975 | – | 0.713 | 0.75 | 0.735 | 0.591 | 0.359 |
| NCI-H460 | 0.805 | 0.769 | 0.888 | 0.799 | 0.379 | 0.365 | 0.251 | 0.345 | 0.516 | 0.405 | 0.565 | 0.532 | 0.54 | – | 0.718 | 0.703 | 0.654 | 0.647 | 0.85 | 0.401 |
| NCI-H520 | 0.657 | 0.642 | 0.733 | 0.804 | 0.346 | 0.308 | 0.324 | 0.336 | 0.218 | 0.171 | 0.205 | 0.211 | 0.192 | 0.734 | 0.628 | 0.696 | 0.758 | 0.715 | 0.599 | 0.27 |
| NCI-H596 | 1.02 | 0.931 | 0.896 | 0.973 | 0.374 | 0.388 | 0.334 | 0.373 | 0.701 | 0.592 | 0.533 | 0.554 | 0.664 | 0.724 | 0.476 | 0.694 | 0.577 | 0.657 | 1.04 | 0.445 |
| NCI-H647 | 1 | 0.903 | 0.992 | 0.911 | 0.56 | 0.468 | 0.325 | 0.433 | 0.193 | 0.121 | 0.168 | 0.179 | 0.204 | 0.612 | 0.455 | 0.512 | 0.762 | 0.485 | 0.922 | – |
